Source: patent US20260007681A1, “INDOLE DERIVATIVES AS ESTROGEN RECEPTOR DEGRADERS” (REGENTS OF THE UNIVERSITY OF MICHIGAN, priority 2022, published 2026)
pIC50: −log10 of the molar value. Where a name gives a salt, the structure may show the parent alone. Read-outs that look alike come from different tables or passages of the source.

Key:
ER in MCF-7 cells = ER in MCF-7 cells (Homo sapiens (Human), UniProt P03372); test: In-cell western (ICW) ER degradation assay in MCF-7 cells (Compounds A1-A70); assay type: cell-based; details: for DC50: ER degradation, 0.02 to 300 nM, read-out: MCF7 ICW DC50
Sequence of ER in MCF-7 cells (P03372 whole entry): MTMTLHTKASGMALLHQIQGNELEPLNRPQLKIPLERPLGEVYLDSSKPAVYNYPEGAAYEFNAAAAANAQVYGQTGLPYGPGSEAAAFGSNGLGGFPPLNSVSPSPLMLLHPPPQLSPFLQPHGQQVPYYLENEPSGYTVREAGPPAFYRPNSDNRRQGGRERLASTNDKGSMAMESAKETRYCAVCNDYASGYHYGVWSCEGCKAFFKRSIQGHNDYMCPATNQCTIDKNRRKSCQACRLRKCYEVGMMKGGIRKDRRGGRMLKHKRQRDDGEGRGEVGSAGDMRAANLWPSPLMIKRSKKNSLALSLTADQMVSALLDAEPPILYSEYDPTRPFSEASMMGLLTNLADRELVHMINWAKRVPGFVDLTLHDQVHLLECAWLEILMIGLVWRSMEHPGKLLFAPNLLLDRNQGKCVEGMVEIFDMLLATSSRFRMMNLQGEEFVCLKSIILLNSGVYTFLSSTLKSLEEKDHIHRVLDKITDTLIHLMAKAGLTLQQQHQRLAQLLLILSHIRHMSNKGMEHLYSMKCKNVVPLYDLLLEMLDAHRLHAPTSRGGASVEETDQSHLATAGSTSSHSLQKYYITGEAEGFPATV
Description: (§1) ERa degradative activity of compounds can be assessed in MCF-7 and T47D Cells. MCF-7 and T47D cell are seeded and are subsequently treated with the compounds at certain concentrations (e.g., 0.02 to 300 nM). DMSO can be used as vehicle control. Cells are fixed and are blocked with Intercept (PBS) Blocking Buffer (e.g., Li—COR, Odyssey Blocking Buffer), and are stained with ER (e.g., 1:500, Cell signaling) primary antibody for overnight at cold room. Secondary Antibody (e.g., IRDye 800CW Goat anti-Rabbit IgG) and CellTag 700 Stain are added in Intercept (PBS) Blocking Buffer. Finally, cell plate is placed in incubator to dry. Image and signal are captured on Odyssey® DLx Imaging System.
(§2) Day 3: After 16 hrs of compounds treatment, cells were fixed by 4% PFA and permeabilized with elution buffer (0.1% Triton X-100 in 1% PBS Solution). Subsequently, cells were blocked with Intercept (PBS) Blocking Buffer (Li—COR, Odyssey Blocking Buffer), and were stained with ER (1:500, Cell signaling) primary antibody for overnight at cold room.
(§3) Day 4: Remove the buffer, add IRDye 800CW Goat anti-Rabbit IgG Secondary Antibody (1:2000) and CellTag 700 Stain (1:500) in Intercept (PBS) Blocking Buffer. Finally, cell plate is placed in incubator to dry. Image and signal were captured on Odyssey® DLx Imaging System.

CRBN/DDB1 = CRBN/DDB1 (Homo sapiens (Human), UniProt Q96SW2); assay type: binding
Description: The binding potency was determined using H-TRF assay technology (Perkin Elmer). Compounds were serially diluted in DMSO and 0.2 μL volume was transferred to white 384-well plate.

ER in T47D cells = ER in T47D cells (Homo sapiens (Human), UniProt P03372); test: In-cell western (ICW) ER degradation assay in T47D cells (Compounds A1-A70); assay type: cell-based; details: for DC50: ER degradation, 0.02 to 300 nM; for Dmax: T47D, read-out: T47D ICW Dmax (%)
Sequence of ER in T47D cells (P03372 whole entry): as above
Description: as §1, §2, §3

[1] = MCF7, maximal ER degradation, MCF-7 cells, 16 hrs treatment, read-out: MCF7 ICW Dmax (%)
[2] = His tagged CRBN+DDB-DLS7+CXU4, Cy5-labeled Thalidomide probe, one hour incubation, read-out: CRBN HTRF IC50
[3] = maximal ER degradation, T47D cells, 16 hrs treatment
[4] = MCF7, read-out: MCF7 ICW Dmax (%)

SMILES	DC50 (ER in MCF-7 cells; MCF-7 cells, 16 hrs treatment)	Dmax (ER in MCF-7 cells; [1])	pIC50 (CRBN/DDB1; [2])	DC50 (ER in T47D cells; T47D cells, 16 hrs treatment)	Dmax (ER in T47D cells; [3])	Dmax (ER in MCF-7 cells; [4])	pIC50 (CRBN/DDB1)	Dmax (ER in T47D cells)
C[C@@H]1Cc2c([nH]c3ccccc23)[C@@H](c2cnc(N3CCC4(CC3)CC(CN3CCC(c5ccc6c(c5)n(C)c(=O)n6C5CCC(=O)NC5=O)CC3)C4)nc2)N1CC(F)F (stereo partly drawn) [Compound A32, 3-(5-(1-((7-(5-((1R,3R)-2-(2,2-difluoroethyl)-3-methyl-2,3,4,9-tetrahydro-1H-pyrido[3,4-b]indol-1-yl)pyrimidin-2-yl)-7-azaspiro[3.5]nonan-2-yl)methyl)piperidin-4-yl)-3-methyl-2-oxo-2,3-dihydro-1H-benzo[d]imidazol-1-yl)piperidine-2,6-dione]	< 1 nM	25 to 50%	6.30 to 7.30	< 1 nM	50 to 75%	–	–	–
COc1cc(N2CCC(CN3CCN4c5cc(F)c(C(=O)N[C@H]6CCC(=O)NC6=O)cc5OC[C@@H]4C3)CC2)ccc1[C@@H]1c2[nH]c3ccccc3c2C[C@@H](C)N1CC(F)F [Compound A30, (S)-3-((1-(4-((1R,3R)-2-(2,2-difluoroethyl)-3-methyl-2,3,4,9-tetrahydro-1H-pyrido[3,4-b]indol-1-yl)-3-methoxyphenyl)piperidin-4-yl)methyl)-N-((S)-2,6-dioxopiperidin-3-yl)-9-fluoro-1,2,3,4,4a,5-hexahydrobenzo[b]pyrazino[1,2-d][1,4]oxazine-8-carboxamide]	1 to 10 nM	25 to 50%	5.30 to 6.30	1 to 10 nM	50 to 75%	–	–	–
C[C@H]1Cc2c([nH]c3ccccc23)[C@H](c2ccc(N3CCC(CN4CCN5c6ccc7c(c6OC[C@@H]5C4)CN([C@@H]4CCC(=O)NC4=O)C7=O)CC3)cn2)N1CC(F)(F)F [Compound A62, (R)-3-((S)-7-((1-(6-((1R,3S)-3-methyl-2-(2,2,2-trifluoroethyl)-2,3,4,9-tetrahydro-1H-pyrido[3,4-b]indol-1-yl)pyridin-3-yl)piperidin-4-yl)methyl)-1-oxo-1,3,5,5a,6,7,8,9-octahydro-2H-pyrazino[1′,2′:4,5][1,4]oxazino[2,3-e]isoindol-2-yl)piperidine-2,6-dione]	10 to 100 nM	25 to 50%	5.30 to 6.30	10 to 100 nM	25 to 50%	–	–	–
COc1cc(N2CCC(CN3CCC(c4ccc(C(=O)NC5CCC(=O)NC5=O)nc4)CC3)CC2)ccc1[C@@H]1c2[nH]c3ccccc3c2C[C@@H](C)N1CC(F)F (stereo partly drawn) [Compound A53, 5-(1-((1-(4-((1R,3R)-2-(2,2-difluoroethyl)-3-methyl-2,3,4,9-tetrahydro-1H-pyrido[3,4-b]indol-1-yl)-3-methoxyphenyl)piperidin-4-yl)methyl)piperidin-4-yl)-N-(2,6-dioxopiperidin-3-yl)picolinamide]	< 1 nM	25 to 50%	5.30 to 6.30	> 100 nM	< 25%	–	–	–
C[C@H]1Cc2c([nH]c3ccccc23)[C@H](c2cnc(N3CCC4(CC3)C[C@H](CN3CCC(c5ccc(N[C@H]6CCC(=O)NC6=O)cc5)CC3)CO4)nc2)N1CC(F)F [Compound A67, (S)-3-((4-(1-(((R)-8-(5-((1S,3S)-2-(2,2-difluoroethyl)-3-methyl-2,3,4,9-tetrahydro-1H-pyrido[3,4-b]indol-1-yl)pyrimidin-2-yl)-1-oxa-8-azaspiro[4.5]decan-3-yl)methyl)piperidin-4-yl)phenyl)amino)piperidine-2,6-dione]	< 1 nM	50 to 75%	5.30 to 6.30	< 1 nM	50 to 75%	–	–	–
C[C@H]1Cc2c([nH]c3ccccc23)[C@H](c2cnc(N3CCC4(CC3)C[C@H](CN3CCN5c6cc7c(cc6OC[C@H]5C3)C(=O)N([C@@H]3CCC(=O)NC3=O)C7)CO4)nc2)N1CC(F)F [Compound A60, (R)-3-((R)-3-(((R)-8-(5-((1S,3S)-2-(2,2-difluoroethyl)-3-methyl-2,3,4,9-tetrahydro-1H-pyrido[3,4-b]indol-1-yl)pyrimidin-2-yl)-1-oxa-8-azaspiro[4.5]decan-3-yl)methyl)-8-oxo-1,2,3,4,4a,5,8,10-octahydro-9H-pyrazino[1′,2′:4,5][1,4]oxazino[2,3-f]isoindol-9-yl)piperidine-2,6-dione]	< 1 nM	50 to 75%	5.30 to 6.30	< 1 nM	50 to 75%	–	–	–
C[C@@H]1Cc2c([nH]c3ccccc23)[C@@H](c2cnc([C@H]3CC[C@H](C(=O)N4CCC(N5Cc6cc7c(cc6C5)C(=O)N(C5CCC(=O)NC5=O)C7)CC4)CC3)nc2)N1CC(F)F (stereo partly drawn) [Compound A25, 3-(6-(1-((1R,4r)-4-(5-((1R,3R)-2-(2,2-difluoroethyl)-3-methyl-2,3,4,9-tetrahydro-1H-pyrido[3,4-b]indol-1-yl)pyrimidin-2-yl)cyclohexane-1-carbonyl)piperidin-4-yl)-1-oxo-3,5,6,7-tetrahydropyrrolo[3,4-f]isoindol-2(1H)-yl)piperidine-2,6-dione]	10 to 100 nM	< 25%	> 7.30	< 1 nM	25 to 50%	–	–	–
COc1cc(N2CCC(CN3CCC(c4ccc5c(c4)n(C)c(=O)n5C4CCC(=O)NC4=O)CC3)CC2)ccc1[C@@H]1c2[nH]c3ccccc3c2C[C@@H](C)N1CC(F)F (stereo partly drawn) [Compound A35, 3-(5-(1-((1-(4-((1R,3R)-2-(2,2-difluoroethyl)-3-methyl-2,3,4,9-tetrahydro-1H-pyrido[3,4-b]indol-1-yl)-3-methoxyphenyl)piperidin-4-yl)methyl)piperidin-4-yl)-3-methyl-2-oxo-2,3-dihydro-1H-benzo[d]imidazol-1-yl)piperidine-2,6-dione]	10 to 100 nM	25 to 50%	6.30 to 7.30	< 1 nM	50 to 75%	–	–	–
COc1cc(N2CCC(CN3CCN4c5ccc(C(=O)NC6CCC(=O)NC6=O)nc5OC[C@H]4C3)CC2)ccc1[C@@H]1c2[nH]c3ccccc3c2C[C@@H](C)N1CC(F)F (stereo partly drawn) [Compound A51, (4aR)-3-((1-(4-((1R,3R)-2-(2,2-difluoroethyl)-3-methyl-2,3,4,9-tetrahydro-1H-pyrido[3,4-b]indol-1-yl)-3-methoxyphenyl)piperidin-4-yl)methyl)-N-(2,6-dioxopiperidin-3-yl)-1,2,3,4,4a,5-hexahydropyrazino[1,2-d]pyrido[2,3-b][1,4]oxazine-8-carboxamide formate]	< 1 nM	–	5.30 to 6.30	< 1 nM	> 75%	> 75%	–	–
COc1cc(N2CCC(CN3CCN4c5cc6c(cc5OC[C@@H]4C3)C(=O)N([C@@H]3CCC(=O)NC3=O)C6)CC2)ccc1[C@H]1c2[nH]c3ccccc3c2C[C@H](C)N1CC(F)F [Compound A44, (R)-3-((S)-3-((1-(4-((1S,3S)-2-(2,2-difluoroethyl)-3-methyl-2,3,4,9-tetrahydro-1H-pyrido[3,4-b]indol-1-yl)-3-methoxyphenyl)piperidin-4-yl)methyl)-8-oxo-1,2,3,4,4a,5,8,10-octahydro-9H-pyrazino[1′,2′:4,5][1,4]oxazino[2,3-f]isoindol-9-yl)piperidine-2,6-dione]	< 1 nM	50 to 75%	6.30 to 7.30	< 1 nM	50 to 75%	–	–	–
COc1cc(N2CCC3(CCN(C(=O)CN4Cc5cnc(C(=O)N[C@H]6CCC(=O)NC6=O)cc5C4)CC3)CC2)ccc1[C@@H]1c2[nH]c3ccccc3c2C[C@@H](C)N1CC(F)F [Compound A50, 2-(2-(9-(4-((1R,3R)-2-(2,2-difluoroethyl)-3-methyl-2,3,4,9-tetrahydro-1H-pyrido[3,4-b]indol-1-yl)-3-methoxyphenyl)-3,9-diazaspiro[5.5]undecan-3-yl)-2-oxoethyl)-N—((S)-2,6-dioxopiperidin-3-yl)-2,3-dihydro-1H-pyrrolo[3,4-c]pyridine-6-carboxamide formate]	–	–	–	–	–	50 to 75%	5.30 to 6.30	50 to 75%
C[C@@H]1Cc2c([nH]c3ccccc23)[C@@H](c2ccc(N3CCC(CN4CCN5c6ccc7c(c6OC[C@@H]5C4)CN([C@H]4CCC(=O)NC4=O)C7=O)CC3)nc2)N1CC(F)F [Compound A23, (S)-3-((S)-7-((1-(5-((1R,3R)-2-(2,2-difluoroethyl)-3-methyl-2,3,4,9-tetrahydro-1H-pyrido[3,4-b]indol-1-yl)pyridin-2-yl)piperidin-4-yl)methyl)-1-oxo-1,3,5,5a,6,7,8,9-octahydro-2H-pyrazino[1′,2′:4,5][1,4]oxazino[2,3-e]isoindol-2-yl)piperidine-2,6-dione]	1 to 10 nM	25 to 50%	6.30 to 7.30	1 to 10 nM	50 to 75%	–	–	–
